Holding throughout (type): in vivo, mouse
The subject of assay [1] is wild-type C57BL/6 mice. The assay can be described thus: Acute oral glucose tolerance test (OGTT) in wild-type mice. The settings on record: 10 mg/kg i.p. 10 min before 2 g/kg oral glucose load, wild-type C57Bl/6J mice. The method, then:
(§1) In order to evaluate the short-term effects of the rimonabant-like molecules, as well as their selectivity for CB1R, wild-type C57BL/6 mice and CB1R −/− mice underwent an oral glucose tolerance test (OGTT at 2 g/kg) 10 min after i.p. injection of vehicle or of JM-02.003 or JM-00.266 (i.e., compound IA) (10 mg/kg). Blood glucose was measured at times t=0, t=15 min, t=30 min, t=45 min, t=60 min, t=90 min, and t=120 min post-oral. glucose administration using a Contour®TS blood glucose monitor (ref. 81574201, Bayer HealthCare) and reactive strips (ref. 81574274, Bayer HealthCare).

A further assay has as its system CB1R -/- mice. The assay is described as follows: Acute oral glucose tolerance test (OGTT) in CB1R KO mice. The settings on record: 10 mg/kg i.p., OGTT 2 g/kg. The method, then:
as §1

Assay [2] deals with wild-type C57BL/6 mice. The assay is described as follows: Plasma insulin during OGTT (ELISA). The note with it: 10 mg/kg i.p. The method, then: Assay of plasma insulin was carried out using the ALPCO™ Mouse Insulin ELISA Kit (ref. AKRIN-011T, ALPCO Diagnostics) according to the supplier's instructions. Blood samples were collected during an OGTT at t=0, t=30, t=60, t=120 min post-administration of the oral bolus of glucose (2 g/kg).
On the technique in general: In an ELISA, binding on a coated surface is turned into a signal by an enzyme label.

Assay [3] concerns obese C57BL/6 mice. The assay is described as follows: ITT before and after 30-day chronic treatment. The settings on record: obese mice after 30 days of treatment. The method, then: In order to evaluate the long-term effects of the treatment on blood glucose control, glucose tolerance (OGTT) and insulin sensitivity (ITT) were evaluated pre- and post-treatment. Thus, for the OGTT the mice were force-fed glucose (2 g/kg), and for the ITT the mice received an i.p. injection of insulin (0.5 IU/kg). In both cases, blood glucose was measured at times t=0, t=15 min, t=30 min, t=45 min, t=60 min, t=90 min, and t=120 min post-glucose ingestion using a Contour®TS blood glucose monitor (ref. 81574201, Bayer HealthCare) and reactive strips (ref. 81574274, Bayer HealthCare).

In assay [4] the test system is obese C57BL/6 mice. The assay can be described thus: Body mass, 43-day oral treatment combined with low-fat diet. The settings on record: low-fat diet (5% lipids), oral daily, 43 days. From the text:
In order to determine the long-term effects of compound of interest JM-00.266 (i.e., compound IA), C57BL/6 mice were made obese by means of a high-fat diet (30% crude fat, 33.5% carbohydrates; ref. E15126-34, SSNIFF, Soest, Germany) for 15 weeks. The mice were then subjected to a low-fat diet (5% lipids; Standard Diet AO4; UAR, Epinay-sur-Orge, France) and received daily, in the middle of the day, an oral dose of JM-00.266 (i.e., compound IA) or of vehicle over a period of 43 days. The weight of the animals was measured every two days from the beginning of the treatment.

Assay [5] deals with obese C57BL/6 mice. The assay can be described thus: Glucose tolerance test after 43-day oral treatment with low-fat diet. The note with it: 43 days, orally 10 mg/kg once per day. The method, then: (§2) In order to evaluate the long-term effects of the treatment on blood glucose control, glucose tolerance was evaluated at the end of the treatment period. The mice received an intraperitoneal injection of glucose (2 g/kg) then blood glucose was measured at times t=0, t=15 min, t=30 min, t=45 min, t=60 min, t=90 min, and t=120 min post-glucose injection using a My Life Pura blood glucose monitor (Ypsomed, Paris, France).

The test system of assay [6] is obese C57BL/6 mice. The assay is described as follows: Body mass, oral treatment simultaneously with food on high-fat diet. The note with it: obese mice on high-fat diet (35% crude fat), one administration daily during the meal, 10 mg/kg oral, 28 days. The method, then:
C57BL/6 mice were made obese by means of a high-fat diet (35% crude fat, 25.3% carbohydrates; ref. E15742-34, SSNIFF, Soest, Germany) for 15 weeks. […] The weight of the animals was measured every two days from the beginning of the treatment.

In assay [7] the test system is obese C57BL/6 mice. The assay can be described thus: Glucose tolerance test after oral treatment simultaneously with food. The note with it: 28 days, administered at the same time as the meal. The method, then: as §2
For assay [8], the system named is liver, subcutaneous and visceral adipose tissue of obese mice. The assay can be described thus: Gene expression of markers (RT-PCR) in liver and adipose tissues after oral treatment with food. The method, then:
Total messenger RNA (mRNA) extraction was carried out with Tri-Reagent (Euromedex, France) and consecutive synthesis of complementary DNA (cDNA) was carried out from 1 μg of mRNA with the Bio-Rad iScripttm Reverse Transcription super mix kit (Bio-Rad, France). Gene expression was evaluated by semi-quantitative real-time reverse transcription-polymerase chain reaction (RT-PCR). The primers used, described below, were selected using the Primer3Plus software (http://www.bioinformatics.nl/cgi-25 bin/primer3plus/primer3plus.cgi) and synthesized by MWG-Biotech. Semi-quantification of gene expression was obtained by taking into account the efficacy of each PCR and standardization with the reporter gene TATA box-binding protein (TBP).
The impact of the treatment on endocannabinoid system activity is evaluated by measuring the gene expression 1) of receptors CB1R and CB2R 2) of the endocannabinoid synthesis enzyme, N-acyl phosphatidylethanolamine phospholipase D (NAPE-PLD) and 3) of the endocannabinoid degradation enzyme, fatty acid amide hydrolase (FAAH).
Fatty acid synthase (FAS), stearoyl-CoA desaturase 1 (SCD-1) and glycerol-phosphate acyl-transferase (GPAT2) are enzymes whose expression variations reflect lipogenic activity.
Glucose-6-phosphatase (G6P) and the glucose transporters GLUT2 and GLUT4 in the liver are used herein as neoglucogenesis markers.
F4/80 is a mature macrophage marker.
Tumour necrosis factor-alpha (TNF-a) is a proinflammatory cytokine affecting the regulation of numerous biological processes such as immune functions, cell differentiation and energy metabolism.

A short description of assay [9]: Plasma assay of triglycerides. The settings on record: context of obesity; stated in conclusion only. The method, then: Total cholesterol, triglycerides and hepatic markers were assayed by a Dimension Vista Intelligent Lab System (Siemens, Saint-Denis, France) using suitable reagents.
Assay [10] deals with liver, subcutaneous and visceral adipose tissue of obese mice. The assay can be described thus: Gene expression of markers (RT-PCR) in liver and adipose tissues after oral treatment with food. This is another data set of the same source.

Structures are written as SMILES.

In the case of `CSc1ccc(C2C(N3C(=O)c4ccccc4C3=O)C(=O)N2c2ccc(SC)cc2)cc1` (stereo not drawn) [JM-00.266, trans-1,4-di-(4-methylthiophenyl)-3-N-phthaloyl-azetidine-2-one], the “glucose tolerance compared with vehicle” value in the assay on wild-type C57BL/6 mice [1] is recorded as “improves glucose tolerance”. Besides, in the assay on CB1R -/- mice, the “improvement in glucose tolerance in CB1R KO mice” value is listed as “abolished”. The “blood insulin at t=30 min” value in the assay with wild-type C57BL/6 mice [2] (versus vehicle) is listed as “lower”. Also, the “insulin production induced by glucose administration” value in the assay with wild-type C57BL/6 mice [2] (wild-type mice) is reported as “not stimulated”. Moreover, the “reduction in blood glucose induced by insulin injection, compared with SR141716” value in the assay with obese C57BL/6 mice [3] is “more marked”. In addition, the “insulin resistance (ITT)” value with obese C57BL/6 mice [3] (10 mg/kg) is listed as “improved”. In the assay on obese C57BL/6 mice [4], the “body mass / weight loss versus vehicle + low-fat diet” value is “decreases significantly more”. In addition, the “glucose tolerance versus VEH+LF and VEH+HF” value in the assay with obese C57BL/6 mice [5] is recorded as “better glucose tolerance”. The “weight loss versus vehicle” value in the assay with obese C57BL/6 mice [6] is listed as “lose more weight”. For the same molecule, the “glucose tolerance versus vehicle” value in the assay on obese C57BL/6 mice [7] is on record as “better glucose tolerance”. In assay [8] (adipose tissue), the TNF-a expression entry is given as “trend towards the reduction” and the “expression of FAS” value is “reduction”. In assay [8] (any of the tissues tested), the “expression of CB R” value is reported as “not modified” and the “expression of FAAH” value is “not modified”. In assay [8] (liver), the “expression of GPAT” value is reported as “reduction” and the “expression of SCD-1” value is reported as “reduction”. Further, the F4/80 expression result in assay [8] (liver and adipose tissues) is “clearly decreased”. Moreover, in assay [8] (tissues of treated animals), the CB2R expression entry is recorded as “lower”. In assay [8] (tissues tested, 28 d oral with food), the “expression of NAPE-PLD” value is “reduction”. The blood triglycerides entry in assay [9] is “decreasing blood triglycerides”. In addition, in [10], the G6P expression entry is given as “reduction” and the GLUT4 expression result is recorded as “reduction”.

These data come from patent US10457665B2, “1,4-di-(4-methylthiophenyl)-3-phtaloylazetidine-2-one and the derivatives thereof” (Universite De Nantes, priority 2015, dated 2019).
